PubChem BioAssay (NCI)
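Protocol summary: plate cells (96-well), add compound at 5 concentrations, incubate 48 h, interpolate endpoints linearly. TGI: concentration producing complete growth inhibition.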

What was measured:
Assay in all cases: NCI-60 cell line screen, 48 h
OVCAR-8 ovarian = tested on: OVCAR-8 ovarian
SF-539 CNS = tested on: SF-539 CNS
A549 NSCLC = tested on: A549 NSCLC
T-47D breast = tested on: T-47D breast
MDA-MB-231 breast = tested on: MDA-MB-231 breast
MCF7 breast = tested on: MCF7 breast
HCT-15 colon = tested on: HCT-15 colon
OVCAR-4 ovarian = tested on: OVCAR-4 ovarian
KM12 colon = tested on: KM12 colon
CCRF-CEM leukemia = tested on: CCRF-CEM leukemia
MDA-N = tested on: MDA-N
NCI/ADR-RES ovarian = tested on: NCI/ADR-RES ovarian
UACC-257 melanoma = tested on: UACC-257 melanoma
HT29 colon = tested on: HT29 colon
HOP-62 NSCLC = tested on: HOP-62 NSCLC
NCI-H522 lung = tested on: NCI-H522 lung
DU-145 prostate = tested on: DU-145 prostate
SK-MEL-28 melanoma = tested on: SK-MEL-28 melanoma
RPMI-8226 leukemia = tested on: RPMI-8226 leukemia
COLO 205 colon = tested on: COLO 205 colon
RXF 393 renal = tested on: RXF 393 renal
A498 renal = tested on: A498 renal
UACC-62 melanoma = tested on: UACC-62 melanoma
MOLT-4 leukemia = tested on: MOLT-4 leukemia
SF-268 CNS = tested on: SF-268 CNS
MDA-MB-435 = tested on: MDA-MB-435
HOP-92 NSCLC = tested on: HOP-92 NSCLC
SR leukemia = tested on: SR leukemia
ACHN renal = tested on: ACHN renal
SN12C renal = tested on: SN12C renal
BT-549 breast = tested on: BT-549 breast
PC-3 prostate = tested on: PC-3 prostate
EKVX NSCLC = tested on: EKVX NSCLC
HCT-116 colon = tested on: HCT-116 colon
NCI-H23 lung = tested on: NCI-H23 lung
SK-MEL-5 melanoma = tested on: SK-MEL-5 melanoma
HCC-2998 colon = tested on: HCC-2998 colon
HL-60(TB) leukemia = tested on: HL-60(TB) leukemia
SW-620 colon = tested on: SW-620 colon
OVCAR-3 ovarian = tested on: OVCAR-3 ovarian
MALME-3M melanoma = tested on: MALME-3M melanoma
LOX IMVI melanoma = tested on: LOX IMVI melanoma
786-0 renal = tested on: 786-0 renal
SK-MEL-2 melanoma = tested on: SK-MEL-2 melanoma
UO-31 renal = tested on: UO-31 renal
CAKI-1 renal = tested on: CAKI-1 renal
OVCAR-5 ovarian = tested on: OVCAR-5 ovarian
K-562 leukemia = tested on: K-562 leukemia
NCI-H460 lung = tested on: NCI-H460 lung
SNB-75 CNS = tested on: SNB-75 CNS
NCI-H226 lung = tested on: NCI-H226 lung
HS 578T breast = tested on: HS 578T breast
SF-295 CNS = tested on: SF-295 CNS
TK-10 renal = tested on: TK-10 renal
U251 CNS = tested on: U251 CNS
IGROV1 ovarian = tested on: IGROV1 ovarian
M14 melanoma = tested on: M14 melanoma
SNB-19 CNS = tested on: SNB-19 CNS
SK-OV-3 ovarian = tested on: SK-OV-3 ovarian

Measured: TGI

Cc1n[nH]c(=O)n1/N=C/c1ccc([N+](=O)[O-])cc1
not listed: IGROV1 ovarian | M14 melanoma | SNB-19 CNS | SK-OV-3 ovarian
> 100 µM: all other assays above

CC(C)c1cc2c(c(O)c1O)[C@@]1(C)CCCC(C)(C)C1=C(O)C2
2.77 µM: MDA-MB-435
2.76 µM: HCC-2998 colon
2.32 µM: HOP-92 NSCLC | SK-MEL-5 melanoma
4.38 µM: SF-295 CNS
3.27 µM: HL-60(TB) leukemia
2.85 µM: MCF7 breast
6.99 µM: OVCAR-8 ovarian
4.13 µM: K-562 leukemia
3.21 µM: SR leukemia
1.89 µM: SF-539 CNS
4.22 µM: BT-549 breast
3.51 µM: PC-3 prostate
2.99 µM: MOLT-4 leukemia
11.8 µM: 786-0 renal
5.84 µM: SF-268 CNS
2.96 µM: RXF 393 renal
6.77 µM: HCT-15 colon | MDA-N
4.55 µM: OVCAR-4 ovarian
4.54 µM: U251 CNS
13.4 µM: HOP-62 NSCLC | M14 melanoma | HS 578T breast
9.32 µM: SNB-19 CNS
2.12 µM: CCRF-CEM leukemia
5.73 µM: A549 NSCLC
3.95 µM: UO-31 renal
9.03 µM: OVCAR-5 ovarian
5.78 µM: KM12 colon
5.39 µM: ACHN renal
2.84 µM: CAKI-1 renal
20 µM: T-47D breast
3.14 µM: LOX IMVI melanoma
5.26 µM: OVCAR-3 ovarian
5.4 µM: SW-620 colon
16.1 µM: HT29 colon
5.89 µM: NCI-H460 lung
6.8 µM: NCI-H23 lung
2 µM: NCI/ADR-RES ovarian
3.37 µM: UACC-257 melanoma
8.69 µM: SK-MEL-28 melanoma
3.56 µM: EKVX NSCLC
2.56 µM: SNB-75 CNS
2.15 µM: RPMI-8226 leukemia
2.79 µM: IGROV1 ovarian
3.06 µM: NCI-H522 lung
8.06 µM: COLO 205 colon
3.36 µM: MALME-3M melanoma
24.2 µM: TK-10 renal
2.65 µM: SK-MEL-2 melanoma
3.19 µM: A498 renal
not listed: SK-OV-3 ovarian
> 50 µM: all other assays above

O=C(O)CCN1CCN(CCC(=O)O)CCN(CCC(=O)O)CC1
89.3 µM: HL-60(TB) leukemia
not listed: RXF 393 renal | SF-268 CNS | NCI-H23 lung
> 100 µM: all other assays above

Cc1cc(C)c2c(c1)CC1(Cc3c(ccc(C)c3C)C1=O)C2=O (configuration not stated)
not listed: HOP-62 NSCLC | COLO 205 colon | LOX IMVI melanoma
> 100 µM: all other assays above

CN1CCN(CC(=O)N2CCCn3c2nc2ccccc2c3=O)CC1
not listed: SK-MEL-28 melanoma | RXF 393 renal
> 100 µM: all other assays above
